Experimental data: US20030049317A1, “Method and composition for reducing the danger and preventing the abuse of controlled release pharmaceutical formulations” (priority 2001, published 2003)
Read-outs that look alike come from different tables or passages of the source.

Tests used:
[1] = assay type: in vivo; settings: in comparison to a 15 mg dose of hydrocodone
[2] = test system: morphine-like opioid agonist effects; settings: cited from earlier work; for action of the naloxone amount in Talwin Nx: naloxone hydrochloride equivalent to 0.5 mg base

Structure (SMILES)	Equianalgesic dose, Calculated Dose [1]	onset of effects ([2]; after intravenous administration)	action of the naloxone amount in Talwin Nx ([2]; given by injection)	action of the naloxone amount in Talwin Nx ([2]; taken orally)	block of heroin effects ([2]; one mg intravenously versus 25 mg of heroin)	effect on morphine-like opioid agonist effects ([2]; small doses (0.4-0.8 mg) intramuscularly or intravenously in humans)
COc1ccc2c3c1O[C@H]1C(=O)CC[C@H]4[C@@H](C2)N(C)CC[C@]314 [Hydrocodone]	15.0 mg	–	–	–	–	–
C=CCN1CC[C@]23c4c5ccc(O)c4O[C@H]2C(=O)CC[C@@]3(O)[C@H]1C5 [naloxone]	–	almost immediately	profound antagonistic action to narcotic analgesics	no action when taken orally	completely block the effects of 25 mg of heroin	prevents or promptly reverses the effects of morphine-like opioid agonist
